Data published in US4385055A, “2-Acetyl-and 2-propionylpyridine thiosemicarbazones as antimalarials” (The United States of America as represented by the …, priority 1981, dated 1983).
Converted amounts (≈) assume the structure as drawn. Like-named read-outs stand apart in the source and are kept apart here.

Assays:
[1] = tested on: Neisseria meningitidis; assay: Macro broth dilution MIC, Neisseria meningitidis isolates (Test 2); assay type: cell-based; conditions: Neisseria meningitidis, 24 h, read after 24 hours, read-out: Minimum Inhibitory Concentration
Protocol: Compounds were tested against five isolates of Neisseria meningitidis. The bacterial isolates were provided by the Department of Bacterial Diseases of the Walter Reed Army Institute of Research. The test procedure used was the macro broth dilution method in duplicate outlined by J. C. Sherris on pages 414-415 (loc. cit.). The test compounds and controls were prepared as in Test 1 above. Ampicillin and penicillin standards were initially diluted as described by J. C. Sherris on pages 411-412 (loc. cit.) followed by dilution with Mueller-Hinton broth. The tubes were incubated at 37° C. under 5-10% carbon dioxide.

[2] = tested on: Neisseria gonorrhoeae; assay: Agar dilution MIC, Neisseria gonorrhoeae isolates (Test 3); assay type: cell-based; conditions: 24 h, read-out: Minimum Inhibitory Concentration
Protocol: Compounds were tested against six Neisseria gonorrhoeae isolates. The bacteria used were provided by the Department of Bacterial Diseases of the Walter Reed Army Institute of Research. The test procedure used was the agar dilution method in duplicate as outlined by J. C. Sherris on pages 411-412 (loc. cit.). GC Medium (Difco) with a 2% defined supplement added as described by D. S. Kellogg et al. [J. Bact. 85:1274-1279 (1963)] was used as the media. The compounds were dissolved in DMSO (1.0 mg/mL), diluted with GC broth (GC Medium without agar) to the appropriate concentration, and added to the GC Medium at 55°-56° C. The latter was then poured and allowed to solidify. A penicillin standard was also prepared with initial dilutions as described by J. C. Sherris followed by dilutions with GC broth and addition to the GC Medium at 55°-56° C. as above. The inoculum was 1:200 GC broth dilution of a suspension of colony isolates after the suspension was adjusted visually to the turbidity standard described by J. M. Matsen and A. L. Barr on page 422 in "Manual of Clinical Microbiology," 2nd ed., E. Lennette, E. H. Spaulding, and J. P. Truant, Ed. (American Society for Microbiology, Washington, D.C., 1974). The plates were inoculated with a replicator and incubated at 37° C. under 5-10% carbon dioxide.

[3] = tested on: Plasmodium berghei KBG 173; assay: In vivo antimalarial activity in mice (Test 5); parameters: key to In vivo Antimalarial Activity: C: Mice surviving 60 days are considered cured; Active: Activity is defined as a 100% increase in the mean survival time of the treated mice compared to the control group; Toxicity is defined as a decrease in the mean survival time of the treated mice as compared to the control group; conditions: for ED50: Plasmodium berghei, computed estimate of the dose required to cure 50% of the mice; for In vivo Antimalarial Activity: mice, C = Cure (cured/treated mice)
Protocol: Compounds were tested against Plasmodium berghei KBG 173 malaria in mice following the procedure described by T. S. Osdene, P. B. Russell, and L. Rane [J. Med. Chem. 10:431-434 (1967)]. Five mice were tested at each dosage level. Mice surviving 60 days are considered cured. Toxicity is defined as a decrease in the mean survival time of the treated mice as compared to the control group. Activity is defined as a 100% increase in the mean survival time of the treated mice compared to the control group.

[4] = tested on: Mycobacterium intracellulare; assay: Broth dilution MIC, Mycobacterium intracellulare strains (Test 6); assay type: cell-based; conditions: read-out: Minimum Inhibitory Concentration
[5] = tested on: Group D Enterococcus; assay: Macro broth dilution MIC, Group D Enterococcus isolates (Test 1); assay type: cell-based; conditions: 24 h, read after 24 hours, read-out: Minimum Inhibitory Concentration
Protocol: (§1) Compounds were tested against five isolates of Staphylococcus aureus and five isolates of Group D Enterococcus. The bacteria used were isolated from patients at the Walter Reed Army Medical Center, Washington, D.C. The test procedure used was the macro broth dilution method in duplicate as outlined by J. C. Sherris on pages 414-415 in "Manual of Clinical Microbiology," 2nd ed., E. Lennette, E. H. Spaulding, and J. P. Truant, Ed. (American Society for Microbiology, Washington, D.C., 1974). Each compound was dissolved in DMSO (12.8 mg/mL) and then diluted with Mueller-Hinton broth to obtain the desired dilutions. Tubes containing the highest quantities of DMSO with no compound present were run as controls.

[6] = tested on: Staphylococcus aureus; assay: Macro broth dilution MIC, Staphylococcus aureus isolates (Test 1); assay type: cell-based; conditions: 24 h, read after 24 hours, read-out: Minimum Inhibitory Concentration
Protocol: as §1

[7] = tested on: Mycobacterium smegmatis; assay: MIC against Mycobacterium smegmatis strains (Test 4); assay type: cell-based; conditions: Mycolicibacterium smegmatis, read-out: Minimum Inhibitory Concentration
Protocol: Compounds were tested against four strains of Mycobacterium smegmatis. The test procedure used was as mentioned by N. E. Morrison [Int. J. of Leprosy 39:34-43 (1971)]. The strain numbers refer to Mycobacterium smegmatis ATCC 607, a DDS-resistant daughter strain, a Rifampin-resistant daughter strain, and a Clofazimine-resistant daughter strain, respectively.

[8] = Neisseria meningitidis isolate 7957
[9] = Neisseria meningitidis isolate 7990
[10] = Neisseria meningitidis isolate 8005
[11] = Neisseria meningitidis isolate 8006
[12] = Neisseria meningitidis isolate 8011
[13] = Neisseria gonorrhoeae isolate 135, read after 24 hours
[14] = Neisseria gonorrhoeae isolate 161, read after 24 hours
[15] = Neisseria gonorrhoeae isolate 278, read after 24 hours
[16] = Neisseria gonorrhoeae isolate 455, read after 24 hours
[17] = Neisseria gonorrhoeae isolate 456, read after 24 hours
[18] = Neisseria gonorrhoeae isolate 602, read after 24 hours
[19] = Mycobacterium intracellulare strain I
[20] = Mycobacterium intracellulare strain II
[21] = Mycobacterium intracellulare strain III
[22] = Mycobacterium intracellulare strain IV
[23] = Mycobacterium intracellulare strain V
[24] = Mycobacterium intracellulare strain VI
[25] = Group D Enterococcus isolate II
[26] = Group D Enterococcus isolate III
[27] = Group D Enterococcus isolate IV

| MIC [4, 19] | MIC [4, 20] | MIC [4, 21] | MIC [4, 22] | MIC [4, 23] | MIC [4, 24] | MIC ([5]; Group D Enterococcus isolate I) | MIC [5, 25] | Structure (SMILES) | MIC [1, 8] | MIC [1, 9] | MIC [1, 10] | MIC [1, 11] | MIC [1, 12] | MIC [2, 13] | MIC [2, 14] | MIC [2, 15] | MIC [2, 16] | MIC [2, 17] | MIC [2, 18] | ED50 [3] | further results |
| --- | --- | --- | --- | --- | --- | --- | --- | --- | --- | --- | --- | --- | --- | --- | --- | --- | --- | --- | --- | --- | --- |
|  |  |  |  |  |  |  |  | CC(=NNC(=S)N1CCN(c2ccccn2)CC1)c1ccccn1 [V, 1,4-Diaza-4-(2-pyridyl)cyclohexane-1-thiocarboxylic acid 2-[1-(2-pyridyl)ethylidene]hydrazide] | 0.062 µg/mL (≈ 0.182 µM) | 0.125 µg/mL (≈ 0.367 µM) | 0.125 µg/mL (≈ 0.367 µM) | 0.125 µg/mL (≈ 0.367 µM) | 0.25 µg/mL (≈ 0.734 µM) | 0.016 µg/mL (≈ 0.047 µM) | < 0.008 µg/mL | 0.031 µg/mL (≈ 0.0911 µM) | 0.016 µg/mL (≈ 0.047 µM) | 0.016 µg/mL (≈ 0.047 µM) | 0.016 µg/mL (≈ 0.047 µM) | 45 mg/kg | In vivo Antimalarial Activity ([3]; Dosage Level 640 mg/kg): Toxic |
| 1 µg/mL (≈ 3.62 µM) | 1 µg/mL (≈ 3.62 µM) | 1 µg/mL (≈ 3.62 µM) | 1 µg/mL (≈ 3.62 µM) | 1 µg/mL (≈ 3.62 µM) | 1 µg/mL (≈ 3.62 µM) | 4 µg/mL (≈ 14.5 µM) | 4 µg/mL (≈ 14.5 µM) | CC(=NNC(=S)N1CCCCCC1)c1ccccn1 [H, 1-Azacycloheptane-1-thiocarboxylic acid 2-[1-(2-pyridyl)ethylidene]hydrazide] | 0.031 µg/mL (≈ 0.112 µM) | 0.062 µg/mL (≈ 0.224 µM) | 0.062 µg/mL (≈ 0.224 µM) | 0.125 µg/mL (≈ 0.452 µM) | 0.062 µg/mL (≈ 0.224 µM) | 0.031 µg/mL (≈ 0.112 µM) | 0.016 µg/mL (≈ 0.0579 µM) | 0.031 µg/mL (≈ 0.112 µM) | 0.031 µg/mL (≈ 0.112 µM) | 0.016 µg/mL (≈ 0.0579 µM) | 0.031 µg/mL (≈ 0.112 µM) | 72 mg/kg | MIC [5, 26]: 4 µg/mL (≈ 14.5 µM); MIC [5, 27]: 4 µg/mL (≈ 14.5 µM); MIC ([5]; Group D Enterococcus isolate V): 4 µg/mL (≈ 14.5 µM); In vivo Antimalarial Activity ([3]; Dosage Level 40 mg/kg): Active |
| 10 µg/mL (≈ 30.4 µM) | 1 µg/mL (≈ 3.04 µM) | 1 µg/mL (≈ 3.04 µM) | 10 µg/mL (≈ 30.4 µM) | 10 µg/mL (≈ 30.4 µM) | 10 µg/mL (≈ 30.4 µM) | 2 µg/mL (≈ 6.09 µM) | 1 µg/mL (≈ 3.04 µM) | CC(=NNC(=S)NC12CC3CC(CC(C3)C1)C2)c1ccccn1 [S, 2-Acetylpyridine 4-(1-adamantyl)-3-thiosemicarbazone] |  |  |  |  |  |  |  |  |  |  |  |  | MIC ([6]; Staphylococcus aureus isolate I): 2 µg/mL (≈ 6.09 µM); MIC ([6]; Staphylococcus aureus isolate II): 2 µg/mL (≈ 6.09 µM); MIC ([6]; Staphylococcus aureus isolate III): 4 µg/mL (≈ 12.2 µM); MIC ([6]; Staphylococcus aureus isolate IV): 2 µg/mL (≈ 6.09 µM); MIC ([6]; Staphylococcus aureus isolate V): 1 µg/mL (≈ 3.04 µM); MIC [5, 26]: 2 µg/mL (≈ 6.09 µM); MIC [5, 27]: 2 µg/mL (≈ 6.09 µM); MIC ([5]; Group D Enterococcus isolate V): 2 µg/mL (≈ 6.09 µM) |

| Structure (SMILES) | MIC [4, 19] | MIC [4, 20] | MIC [4, 21] | MIC [4, 22] | MIC [4, 23] | MIC [4, 24] | MIC ([5]; Group D Enterococcus isolate I) | MIC [5, 25] | MIC [1, 8] | MIC [1, 9] | MIC [1, 10] | MIC [1, 11] | MIC [1, 12] | MIC [2, 13] | MIC [2, 14] | MIC [2, 15] | MIC [2, 16] | MIC [2, 17] | MIC [2, 18] | ED50 [3] | further results |
| --- | --- | --- | --- | --- | --- | --- | --- | --- | --- | --- | --- | --- | --- | --- | --- | --- | --- | --- | --- | --- | --- |
| CCC1CCCCN1C(=S)NN=C(C)c1ccccn1 (stereo not shown) [AA, 2-Ethylpiperidine-1-thiocarboxylic acid 2-[1-(2-pyridyl)ethylidene]hydrazide] | 10 µg/mL (≈ 34.4 µM) | 1 µg/mL (≈ 3.44 µM) | 1 µg/mL (≈ 3.44 µM) | 1 µg/mL (≈ 3.44 µM) | 10 µg/mL (≈ 34.4 µM) | 10 µg/mL (≈ 34.4 µM) |  |  |  |  |  |  |  |  |  |  |  |  |  | 113 mg/kg | MIC ([7]; ATCC607, Mycobacterium smegmatis strain I (ATCC 607)): 5 µg/mL (≈ 17.2 µM); MIC ([7]; Mycobacterium smegmatis strain II (DDS-resistant daughter strain)): 10 µg/mL (≈ 34.4 µM); MIC ([7]; Mycobacterium smegmatis strain III (Rifampin-resistant daughter strain)): 10 µg/mL (≈ 34.4 µM); MIC ([7]; Mycobacterium smegmatis strain IV (Clofazimine-resistant daughter strain)): 10 µg/mL (≈ 34.4 µM) |
